Patent US5296479A, “Treatment of psychosis using 1-cycloalkylpiperidines” (priority 1992, dated 1994)
Where a name gives a salt, the structure may show the parent alone.

Key:
[1] = system: PCP-induced turning behavior; assay: PCP-induced turning behavior in rats; type: in vivo, Male Sprague-Dawley rats; settings: p.o., Table III discussion
Experimental: Male Sprague-Dawley rats (CD/CR, Charles River), weighing 190-290 g, were used for surgery. In order to spare […] neurons, rats were injected with 25 mg/kg imipramine i.p. 30 minutes before surgery. The rats were anesthetized with a 1:1.2 ratio mixture of Xylazine:Ketamine given 0.1 mL/100 g body weight i.m. A Ringers-Wydaze (100:0.01) solution was given to prevent dehydration. Dopamine was depleted in the right striatum by injecting the neurotoxin 6-hydroxydopamine (6-OHDA) into the substantia nigra of the right cerebral hemisphere. Five mg of 6-OHDA was dissolved in 5 mL of a 0.04% ascorbic acid solution which had been deoxygenated with nitrogen. Five μL of the 6-OHDA solution was injected into the substantia nigra through a 26 gauge needle over a five minute period. […]
Rotation rate and direction were determined with Coulbourn Instruments Rotometry Monitors. Clockwise and counter clockwise rotations were recorded at 30 and 60 minute intervals. […]
The data were analyzed with an analysis of variance statistical test and individual comparisons of each dose of test drug to control were made with Dunnett's multiple range test. The ED50 was calculated with a Litchfield and Wilcoxon test using percent of control values.

[2] = system: isolation-induced aggressive behavior; assay: Isolation-Induced Aggression in Mice; type: in vivo, Male Balb/c mice; settings: oral, Table II discussion
Experimental: Male Balb/c mice (Charles River) were used. […] Isolated mice failing to consistently attack an intruder were eliminated from the colony. Drug testing was carried out by treating the isolated mice with test drugs or standards. Fifteen minutes after dosing with test drugs by the oral route, one isolated mouse was removed from its home cage and placed in the home cage of another isolate. Scoring was a yes or no response for each pair. A maximum of 3 minutes was allowed for an attack and the pair was separated immediately upon an attack. Selection of home cage and intruder mice was randomized for each test. Mice were treated and tested twice a week with at least a 2 day washout period between treatments.

catalepsy = assay: Induction of catalepsy; type: in vivo, Male CD rats; settings: rats, oral; Table III discussion
Experimental: Male CD rats (Charles River) weighing 250-300 g were treated with test drugs and standards by the oral route and tested for the presence of catalepsy 30 minute, 60 minute, and 90 minute after treatment. To test for catalepsy, each rat is placed with its front paws over a 10 cm high horizontal bar. The intensity of catalepsy is measured by the length of time it takes the animal to move both forelegs to the table. A time of 20 seconds is considered maximal catalepsy.

Row | Compound | inhibiting PCP-induced turning behavior, in words [1] | inhibiting the isolation-induced aggressive behavior, in words [2] | producing catalepsy, in words (catalepsy)
1 | O=C(CCCN1CCC(O)(c2ccc(Cl)cc2)CC1)c1ccc(F)cc1 [Haloperidol] | potent activity | potent activities | very potent in producing catalepsy
2 | O=C(CC1CCN(CC2CC2)CC1)c1ccc(F)cc1 [Example 504, 1-(Cyclopropylmethyl)-4-2'-(4"-Fluorophenyl)-2-oxoethyl)-piperidine, hydrobromide salt] | potent activity | – | does not produce catalepsy
3 | Fc1ccc(OCC2CCN(CC3CC3)CC2)cc1 [Example 1, 1-(Cyclopropylmethyl)-4-(4-fluorophenoxymethyl)piperidine] | – | potent activities | –
